# Key:
# [1] = Polymorphism study: slurrying of salt crystalline forms in solvents; format: physicochemical; conditions: 7 days
# [2] = Hygroscopicity determination; format: physicochemical; conditions: for hygroscopicity / weight gain after moisture absorption: RH 80%; for crystalline form transformation (XRPD pattern): after 1 cycle of moisture absorption and desorption, 0-95% relative humidity
# Description: The crystalline forms of the salt of the compound were placed in saturated water vapor at different relative humidities to reach a dynamic equilibrium between the crystalline forms of the salt of the compound and the water vapor, and the weight gain percentage after moisture absorption after equilibrium was calculated.
# [3] = Solid stability experiment; format: physicochemical
# Description: About 1 mg of crystalline forms of different salts were taken and investigated at a high temperature of 60° C., a high humidity of RH=92.5%, and a high temperature and high humidity of 50° C. and 75% RH for 7 and 14 days. The changes of related substances were calculated for the crystalline forms of the salts by a chromatographic peak area normalization method.
# [4] = Solubility experiment in different vehicles; format: physicochemical; conditions: 37° C., 2 hours
# [5] = PK study of crystalline forms of different salts in rats; format: in vivo; conditions: SD rats, gavage, 0.5% HPMC K4M
# [6] = tested on: human colorectal cancer cell strain DLD-1 BRCA2−/−; experiment: In vivo pharmacodynamics in DLD-1 BRCA2−/− subcutaneous graft tumor model; set-up: species or system BALB/c nude mice; conditions: DLD-1 BRCA2−/− nude mice, oral, once/day, 28 days
# Description: • a. […] The cells were passaged every three days, and after passage, the cells were placed in a CO2 incubator to continue the culture. This process was repeated until the cell number meets the needs of in vivo efficacy. • c. The cultured cells were collected, counted using a full-automatic cell counter, resuspended with PBS according to the counting results, and prepared into a cell suspension (at a density of 5×10^7/mL), which was then placed in an ice box for use. • a. Nude mouse was marked with a disposable universal ear tag for mice and rats before inoculation. • b. At the time of inoculation, the cell suspension was mixed well, 0.1-1 mL of cell suspension was taken with a 1 mL syringe, and after removing air bubbles, the syringe was placed on an ice bag until use. • c. The nude mouse was secured with the left hand. […] The nude mice were inoculated successively (inoculation with 0.1 mL of cell suspension per mouse). • a. […] According to the weight of tumor-bearing mice and the size of the tumor, the mice were grouped by random grouping. • c. […] Tumors were measured and weighed twice a week after starting administration of test drugs. • e. […] The data was processed with software such as Excel.
# [7] = tested on: BRCA2 Knockout DLD-1 cells; experiment: Inhibition of proliferation of BRCA2 Knockout DLD-1 cells (CellTiter-Glo); format: cell-based; conditions: Homo sapiens, about 144 hours
# Description: When using RPMI1640 medium containing 10% FBS to culture BRCA2 Knockout DLD-1 cells to an appropriate cell density, the cells were collected and adjusted with complete medium to an appropriate cell concentration, the cell suspension was spread in a 96-well plate, with 90 μL per well, and the plate was placed in a 37° C., 5% CO2 incubator for overnight adherence. Compound solutions with different concentrations were prepared with DMSO and the culture medium, and a vehicle control was prepared. The compound solutions were added to the 96-well plate, with 10 μL per well, and the plate was placed in a 37° C., 5% CO2 incubator for continued culturing for about 144 hours. CellTiter-Glo solution was added and uniformly mixed by shaking. After incubation for 10-30 minutes in the dark, reading was carried out with Synergy H1 or Envision microplate reader.
# The inhibition rate was calculated from the luminescence signal value, and the concentration and inhibition rate were subjected to non-linear regression curve fitting by using Graphpad Prism software to obtain an IC50 value. The inhibitory effects of the compounds of some examples of the present disclosure on the proliferation activity of BRCA2 Knockout DLD-1 cells were as shown in the following table: […]
# [8] = FaSSGF (simulated gastric fluid, fasted)
# [9] = FaSSIF (simulated intestinal fluid, fasted)
# [10] = FeSSIF (simulated intestinal fluid, fed)
molecule,measurement,setting,value
"1′-((7-ethyl-6-carbonyl-5,6-dihydro-1,5-diazanaphth-3-yl)methyl)-N-methyl-1′,2′,3′,6′-tetrahydro-[3,4′-bipyridinyl]-6-carboxamide [p-toluenesulfonate dihydrate crystalline Form A]",Slurrying result,"[1]; 1,4-Dioxane, 40° C.",Still as hydrate crystalline
same,Slurrying result,"[1]; 2-Butanone, 40° C.",Still as hydrate crystalline
same,Slurrying result,"[1]; 2-Methyltetrahydrofuran, 40° C.",Still as hydrate crystalline
same,Slurrying result,"[1]; Acetone, 40° C.",p-Toluenesulfonate crystalline
same,Slurrying result,"[1]; Acetonitrile, 40° C.",p-Toluenesulfonate crystalline
same,Slurrying result,"[1]; Dichloromethane, 40° C.",p-Toluenesulfonate crystalline
same,Slurrying result,"[1]; Ethanol, 40° C.",p-Toluenesulfonate crystalline
same,Slurrying result,"[1]; Ethyl acetate, 40° C.",Still as hydrate crystalline
same,Slurrying result,"[1]; Ethyl formate, 40° C.",p-Toluenesulfonate crystalline
same,Slurrying result,"[1]; Isopropanol, 40° C.",Still as hydrate crystalline
same,Slurrying result,"[1]; Methyl tert-butyl ether, 40° C.",Still as hydrate crystalline
same,Slurrying result,"[1]; Tetrahydrofuran, 40° C.",Still as hydrate crystalline
same,Slurrying result,"[1]; Toluene, 40° C.",Still as hydrate crystalline
same,Slurrying result,"[1]; Trichloromethane, 40° C.",p-Toluenesulfonate crystalline
same,Slurrying result,"[1]; methanol, 40° C.",p-Toluenesulfonate crystalline
same,hygroscopicity,[2],weak hygroscopicity
same,weight gain after moisture absorption,[2],1.906%
same,crystalline form transformation (XRPD pattern),[2],no crystalline form transformation occurred
same,Stability result (total impurity increase %),"[3]; 50° C., 75% RH, 7 days",<0.03%
same,Stability result (total impurity increase %),"[3]; 50° C., 75% RH, 14 days",<0.03%
same,Stability result (total impurity increase %),"[3]; 60° C., 7 days",<0.03%
same,Stability result (total impurity increase %),"[3]; 60° C., 14 days",<0.03%
same,Stability result (total impurity increase %),"[3]; 92.5% RH, 7 days",0.08%
same,Stability result (total impurity increase %),"[3]; 92.5% RH, 14 days",<0.03%
same,solubility,[4]; [8],>437 µg/mL
same,solubility,[4]; [9],147 µg/mL
same,solubility,[4]; [10],>340 µg/mL
same,solubility,[4]; Water,308 µg/mL
same,AUC0-t,[5]; 5 mpk,145.036 µg·h/mL
same,AUC0-∞,[5]; 5 mpk,146.622 µg·h/mL
same,Cmax,[5]; 5 mpk,17433 ng/mL
same,t1/2,[5]; 5 mpk,3.8 h
same,F %,"[5]; 5 mpk, 5 mg/kg",92%
same,MRT0-∞,"[5]; 5 mpk, 5 mg/kg",5.4 h
same,tmax,"[5]; 5 mpk, 5 mg/kg",1.0 h
same,AUC0-t,[5]; 20 mpk,558.44 µg·h/mL
same,AUC0-∞,[5]; 20 mpk,587.652 µg·h/mL
same,Cmax,[5]; 20 mpk,53400 ng/mL
same,F %,[5]; 20 mpk,93%
same,MRT0-∞,[5]; 20 mpk,7.5 h
same,t1/2,[5]; 20 mpk,5.7 h
same,tmax,[5]; 20 mpk,4.0 h
"1′-((7-ethyl-6-carbonyl-5,6-dihydro-1,5-diazanaphth-3-yl)methyl)-N-methyl-1′,2′,3′,6′-tetrahydro-[3,4′-bipyridinyl]-6-carboxamide [sulfate crystalline Form A]",Slurrying result,"[1]; 1,4-Dioxane, 50° C.",Crystalline Form A
same,Slurrying result,"[1]; 2-Me—THF, 50° C.",Crystalline Form A
same,Slurrying result,"[1]; ACN, 50° C.",Crystalline Form A
same,Slurrying result,"[1]; Acetone, 50° C.",Crystalline Form A
same,Slurrying result,"[1]; EA, 50° C.",Crystalline Form A
same,Slurrying result,"[1]; EtOH, 50° C.",Crystalline Form A
same,Slurrying result,"[1]; MeOH, 50° C.",Crystalline Form A
same,Slurrying result,"[1]; THF, 50° C.",Crystalline Form A
same,Slurrying result,"[1]; Toluene, 50° C.",Crystalline Form A
same,hygroscopicity,[2],weak hygroscopicity
same,weight gain after moisture absorption,[2],1.785%
same,crystalline form transformation (XRPD pattern),[2],no crystalline form transformation occurred
same,Stability result (total impurity increase %),"[3]; 50° C., 75% RH, 7 days",0.12%
same,Stability result (total impurity increase %),"[3]; 50° C., 75% RH, 14 days",0.56%
same,Stability result (total impurity increase %),"[3]; 60° C., 7 days",0.76%
same,Stability result (total impurity increase %),"[3]; 60° C., 14 days",0.66%
same,Stability result (total impurity increase %),"[3]; 92.5% RH, 7 days",0.17%
same,Stability result (total impurity increase %),"[3]; 92.5% RH, 14 days",0.06%
same,solubility,[4]; [8],>466 µg/mL
same,solubility,[4]; [9],133 µg/mL
same,solubility,[4]; [10],>347 µg/mL
same,solubility,[4]; Water,696 µg/mL
same,AUC0-t,"[5]; 5 mpk, 5 mg/kg",118.078 µg·h/mL
same,AUC0-∞,"[5]; 5 mpk, 5 mg/kg",119.241 µg·h/mL
same,Cmax,"[5]; 5 mpk, 5 mg/kg",14467 ng/mL
same,F %,"[5]; 5 mpk, 5 mg/kg",75%
same,MRT0-∞,"[5]; 5 mpk, 5 mg/kg",5.3 h
same,t1/2,"[5]; 5 mpk, 5 mg/kg",3.7 h
same,tmax,"[5]; 5 mpk, 5 mg/kg",2.0 h
CCc1cc2ncc(CN3CC=C(c4ccc(C(=O)NC5CC5)nc4)CC3)cc2[nH]c1=O [Example 2],animal weight,[6],without significant reduction of the animal weight
CCc1cc2ncc(CN3CC=C(c4ccc(C(=O)NOC)nc4)CC3)cc2[nH]c1=O [Example 3],IC50,[7],3.2 nM
CCc1cc2ncc(CN3CC=C(c4ccc(C(=O)NC)nc4Cl)CC3)cc2[nH]c1=O [Example 13],IC50,[7],1 nM
CCc1cc2ncc(CN3CC=C(c4ccc(C(=O)NCC#N)nc4)CC3)cc2[nH]c1=O [Example 15],IC50,[7],2.4 nM
CCc1cc2ncc(CN3CC=C(c4ccc(C(=O)NC5(C#N)CC5)nc4)CC3)cc2[nH]c1=O [Example 16],IC50,[7],2.7 nM
CCc1cc2ncc(CN3CCC(c4ccc(C(=O)NC)nc4)=C(F)C3)cc2[nH]c1=O [Example 19],IC50,[7],1.5 nM
CCc1cc2ncc(CN3CC=C(c4ccc(C(=O)NCC(F)(F)F)nc4)CC3)cc2[nH]c1=O [Example 20],IC50,[7],1.4 nM
CNC(=O)c1ccc(C2=CCN(Cc3cnc4cc(C(F)(F)F)c(=O)[nH]c4c3)CC2)cn1 [Example 21],IC50,[7],5.1 nM

# — patent US20260151378A1, “SALT AND CRYSTAL FORM OF HETEROCYCLIC DERIVATIVE INHIBITOR, AND PREPARATION METHOD THEREFOR AND USE THEREOF” (SHANGHAI HANSOH BIOMEDICAL CO., LTD., priority 2022, published 2026)
